# Measurements from patent US9474744B2, “Beta-lactam compounds for treating diabetes” (STEM CELL MEDICINE LTD., priority 2011, dated 2016).
# “Also recorded” adds a separate entry of the source.
# Tests used:
# [1] = biological target: T1, albumin of human CD3 T cells (Homo sapiens, UniProt P02768); assay: Western blot with Pen 9 antibody of antibiotic-treated human T cells; assay type: cell-based; conditions: T cells activated by mitogen in presence of antibiotic
# T1 construct: endogenous in cells; host or cells: primary human peripheral-blood T cells (CD3+, CD4+ or CD8+) from healthy donors
# T1 sequence (P02768 25-609): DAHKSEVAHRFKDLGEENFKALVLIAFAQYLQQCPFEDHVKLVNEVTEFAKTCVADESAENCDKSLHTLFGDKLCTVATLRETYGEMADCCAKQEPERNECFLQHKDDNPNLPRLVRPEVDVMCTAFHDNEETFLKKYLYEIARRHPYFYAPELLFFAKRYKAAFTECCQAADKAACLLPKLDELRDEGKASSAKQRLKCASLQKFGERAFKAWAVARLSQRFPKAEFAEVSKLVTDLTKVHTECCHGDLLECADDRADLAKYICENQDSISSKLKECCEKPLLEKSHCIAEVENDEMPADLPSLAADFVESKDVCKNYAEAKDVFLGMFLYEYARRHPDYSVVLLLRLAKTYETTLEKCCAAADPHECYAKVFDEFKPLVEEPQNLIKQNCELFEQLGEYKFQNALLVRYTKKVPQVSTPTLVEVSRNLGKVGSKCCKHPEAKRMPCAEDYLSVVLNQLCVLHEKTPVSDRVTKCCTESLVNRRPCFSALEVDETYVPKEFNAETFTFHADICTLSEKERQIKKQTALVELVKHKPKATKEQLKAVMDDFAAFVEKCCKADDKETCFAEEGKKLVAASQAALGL
# Experimental: Rat tissues were ground with a tissue grinder in lysis buffer. The homogenate was centrifuged 14000 g for 15 min in 4° C. and the supernatant was used for western blotting. The protein concentration was determined using the BIO-RAD DC™ protein assay (Bio-Rad laboratories, Hercules, Calif.). Following electrophoresis in SDS gel in a mini-gel apparatus (Bio-Rad), the gels were electro-transferred to nitrocellulose membranes (Schleicher and schuell, Dassel, Germany). The nitrocellulose membranes were washed with distilled water for 5 min, and then blocked for 60 min. using a blocking solution composed of 2% bovine serum albumin (Fraction V, Sigma, St. Louis Mo.), 2.5% milk powder (Bio-Rad), Tris (Sigma) pH 7.5 10 mM, NaCl 150 mM and 0.02% thimerosal (Sigma). After 3×10 min. washes in PBS/TWEEN® 20 (PBS/T; 0.02%, Sigma), primary antibodies (1/1000) were incubated with the membranes in PBS/TWEEN® for 60 min. Following another series of washes in PBS/T (3×10 min), the membranes were incubated with a secondary antibody (Peroxidase conjugated anti rabbit or anti mouse, IgG Jackson ImmunoResearch, West Grove, Calif.) at a 1/2500 dilution in 2% milk in PBS solution for 60 min. After another 3×10 min washes, the membranes were incubated with the ECL reagent (for 60 seconds) and exposed to X-ray film.
# NOD mice = assay: Development of autoimmune diabetes in NOD mice; assay type: in vivo, mouse
# Source text: Inbred female Lewis rats and NOD (non-obese diabetic) mice were supplied by the animal breeding center of the Weizmann Institute of Science, Israel, under the supervision of Harlan Laboratories and were used at 2-3 months of age. Experiments were approved by the Institutional Animal Care and Use Committee. Human peripheral blood lymphocytes from healthy donors were obtained from the blood bank of Sheba Medical Center, Tel Hashomer, Israel.
# NOD mice spontaneously develop diabetes mellitus similar to type I diabetes in humans. […] The mice were followed for the development of diabetes, marked by blood sugar above 300 mg/dl on 2 measurements.
# [2] = tested on: Adjuvant Arthritis (AA) in Lewis rats; assay: Adjuvant arthritis (AA) in rats, IP antibiotic treatment; assay type: in vivo, rat; conditions: IP 5 mg (25 mg/kg) once every 2 or 3 days from day 12; versus non-injected control
# [3] = tested on: active experimental autoimmune encephalomyelitis (EAE) in Lewis rats; assay: Actively induced EAE in rats, oral antibiotic treatment; assay type: in vivo, rat; conditions: oral cefuroxime Axetil in drinking water from day 7 post-induction, 50 mg/kg daily, versus the two control groups
# CD4+ human T cells = assay: Real-time PCR verification of six gene-array genes; assay type: cell-based; conditions: cDNA from the same RNA as the gene array; normalised to B2M
# Experimental: To verify the results of the gene array, we synthesized real-time PCR primers (designed with the […]® probe design software (Roche)). Real-time PCR of 6 selected genes was performed using a […]® (Roche, Basel, Switzerland). RNA was reverse transcribed to cDNA from 1 μg of total RNA, which was then subjected to quantitative RT-PCR performed essentially according to the manufacturer's instructions. Specific primer pairs were used to amplify specific genes in the presence of 3 mM MgCl2. PCR was performed in triplicate in a total volume of 20 μl of […]® HotStart DNA SYBR Green I mix (Roche) containing primer and 5 μl of cDNA. […] Denaturation was performed for 15 s at 95° C., annealing was performed in 60° C., and the extension was performed at 72° C. for 20 s, with fluorescence detection at 72° C. after each cycle. After the final cycle, melting point analyses of all samples were performed within the range of 62-95° C. with continuous fluorescence detection. […]
# The Human Autoimmune and Inflammatory Response Gene Array (SuperArray Bioscience corporation, Frederick, Md., USA) was used for analysis of gene expression by the T cells. […] To verify the results detected by the gene array study, a panel of six genes was designed and tested by real-time PCR: CCR4, ACVR2, JAK1, STAT4, TLR2 and NFKBIE. […]
SMILES,Pen 9 reactivity with lysates of antibiotic-treated T cells [1],development of type I diabetes in NOD mice (NOD mice; FIG. 1D),"incidence of diabetes (NOD mice; at 5.7 months, s.c. at weekly intervals, ampicillin 1300 μg or ceftriaxone 675 μg per mouse, blood sugar above 300 mg/dl on 2 measurements, control 60%) [%]",arthritis scores [2],severity of active EAE [3],"expression of CCR4, ACVR2, JAK1, STAT4, TLR2 and NFKBIE by real-time PCR (CD4+ human T cells)"
CC1(C)S[C@@H]2[C@H](NC(=O)[C@H](N)c3ccccc3)C(=O)N2[C@H]1C(=O)O [ampicillin],did not bind,Inhibition of type I diabetes,30,,,
CO/N=C(\C(=O)N[C@@H]1C(=O)N2C(C(=O)O)=C(COC(N)=O)CS[C@H]12)c1ccco1 [cefuroxime],,,,significantly more severe arthritis scores; also recorded: Exacerbation of adjuvant-induced arthritis,significantly more severe EAE; also recorded: increases the severity of actively induced EAE,suppressed
